Experimental data published in patent US5451599A, “Complex salts of hematoporphyrin and of its derivatives, their synthesis, and therapeutic agent” (Wojskowa Akademia Techniczna im. Jaroslawa Dabrowskiego, priority 1991, dated 1995).

Key:
[1] = tested on: Mm (Mm5MT/C1, mammary gland cancer cells of C3H-strain mice); assay: 48 h incubation with the salts: cell fluorescence, living cells, multiplication coefficient (Table 3); type: cell-based, Murine; conditions: Mm; 48 hs; 50 mcg/ml
Procedure: (§1) New compounds of formula 1 were tested on cell lines. Use was made of 9 different neoplastic cell lines which were incubated for 48 hs with various new salts of protoporphyrin and with a new salt of the conventionally applied HpD preparation/hematoporphyrin derivatives/obtained according to Lipson et al. All compounds were used in the form of aqueous solutions, at a concentration of 50 mcg/ml. Determination was made of:
(§2) 1/ Cell fluorescence /F/: after 48 hs incubation, the cells were washed away, the intensity of fluorescence was measured in a fluorescence microscope and was expressed on an arbitrary scale of 0-4 scores;
(§3) 2/ Percentage of living cells /P %/ after 48 hs incubation;
(§4) 3/ Cell multiplication coefficient /M/ in the presence of different preparations, expressed as: [formula]
mammary gland cancer cells of C3H-strain mice

[2] = tested on: KB (oral cavity cancer cells); assay: 48 h incubation with the salts: cell fluorescence, living cells, multiplication coefficient (Table 2); type: cell-based, Human; conditions: 48 hs, 50 mcg/ml
Procedure: as §1, §2, §3, §4
KB oral cavity cancer cells

[3] = tested on: CL; assay: 48 h incubation with the salts: cell fluorescence, living cells, multiplication coefficient (Table 1); type: cell-based; conditions: 48 hs, 50 mcg/ml
Procedure: as §1, §2, §3, §4

[4] = tested on: PZ; assay: as above; type: cell-based; conditions: 48 hs, 50 mcg/ml
Procedure: as §1, §2, §3, §4

[5] = tested on: MA-104 (Rhesus monkey embryo kidney cancer cells); assay: as above; type: cell-based; conditions: 48 hs, 50 mcg/ml
Procedure: as §1, §2, §3, §4

[6] = tested on: HBT-39/w (breast cancer cells); assay: 48 h incubation with the salts: cell fluorescence, living cells, multiplication coefficient (Table 2); type: cell-based, Human; conditions: 48 hs, 50 mcg/ml
Procedure: as §1, §2, §3, §4

[7] = tested on: HEp-2 (larynx cancer cells); assay: 48 h incubation with the salts: cell fluorescence, living cells, multiplication coefficient (Table 3); type: cell-based, Human; conditions: 48 hs, 50 mcg/ml
Procedure: as §1, §2, §3, §4
Hep-2 larynx cancer cells

[8] = tested on: Hela (cervix uteri cancer cells); assay: 48 h incubation with the salts: cell fluorescence, living cells, multiplication coefficient (Table 1); type: cell-based, Human; conditions: 48 hs, 50 mcg/ml
Procedure: as §1, §2, §3, §4

[9] = tested on: T-47D (breast cancer cells); assay: 48 h incubation with the salts: cell fluorescence, living cells, multiplication coefficient (Table 3); type: cell-based, Human; conditions: 48 hs, 50 mcg/ml
Procedure: as §1, §2, §3, §4
T-47D breast cancer cells

[10] = tested on: GR (GRMT/F6, mammary gland cancer cells of GR-strain mice); assay: 48 h incubation with the salts: cell fluorescence, living cells, multiplication coefficient (Table 2); type: cell-based, Murine; conditions: 48 hs, 50 mcg/ml
Procedure: as §1, §2, §3, §4
GRMT/F6 mammary gland cancer cells of GR-strain mice

CC1=C(CCC(=O)O)c2cc3[nH]c(cc4nc(cc5[nH]c(cc1n2)c(C(C)NC(CO)C(=O)O)c5C)C(C(C)NC(CO)C(=O)O)=C4C)c(C)c3CCC(=O)O.N=C(N)NCCC[C@H](N)C(=O)O.N=C(N)NCCC[C@H](N)C(=O)O (stereo not drawn) [PP/Ser/2 /Arg/2, l-arginine di/N-seryl/-protoporphyrinate]
Cell fluorescence /F/ [1]: +
Cell multiplication coefficient /M/ [1]: 0,37
Percentage of living cells /P %/ [1]: 37%
Cell fluorescence /F/ [2]: ++
Cell multiplication coefficient /M/ [2]: 0
Percentage of living cells /P %/ [2]: 0%
Cell fluorescence /F/ [3]: +
Cell multiplication coefficient /M/ [3]: 0
Percentage of living cells /P %/ [3]: 0%
Cell fluorescence /F/ [4]: ++
Cell multiplication coefficient /M/ [4]: 0,02
Percentage of living cells /P %/ [4]: 2,5%
Cell fluorescence /F/ [5]: -
Cell multiplication coefficient /M/ [5]: 0,16
Percentage of living cells /P %/ [5]: 0%
Cell fluorescence /F/ [6]: ++
Cell multiplication coefficient /M/ [6]: 0,50
Percentage of living cells /P %/ [6]: 33%
Cell fluorescence /F/ [7]: +
Cell multiplication coefficient /M/ [7]: 0,50
Percentage of living cells /P %/ [7]: 25%
Cell fluorescence /F/ [8]: ++
Cell multiplication coefficient /M/ [8]: 0,50
Percentage of living cells /P %/ [8]: 55%
Cell fluorescence /F/ [9]: +++
Cell multiplication coefficient /M/ [9]: 0,60
Percentage of living cells /P %/ [9]: 40%
Cell fluorescence /F/ [10]: +
Cell multiplication coefficient /M/ [10]: 0,12
Percentage of living cells /P %/ [10]: 12%

CC1=C(CCC(=O)O)c2cc3[nH]c(cc4nc(cc5[nH]c(cc1n2)c(C(C)NC(Cc1c[nH]c2ccccc12)C(=O)O)c5C)C(C(C)NC(Cc1c[nH]c2ccccc12)C(=O)O)=C4C)c(C)c3CCC(=O)O.N=C(N)NCCC[C@H](N)C(=O)O.N=C(N)NCCC[C@H](N)C(=O)O (stereo not drawn) [PP/Trp/2 /Arg/2, l-arginine di/N-tryptophanyl/-protoporphyrinate]
Cell fluorescence /F/ [1]: +++
Cell multiplication coefficient /M/ [1]: 0,33
Percentage of living cells /P %/ [1]: 11%
Cell multiplication coefficient /M/ [2]: 0,21
Percentage of living cells /P %/ [2]: 21%
Cell fluorescence /F/ [3]: -
Cell multiplication coefficient /M/ [3]: 0,50
Percentage of living cells /P %/ [3]: 50%
Cell fluorescence /F/ [4]: +
Cell multiplication coefficient /M/ [4]: 0,50
Percentage of living cells /P %/ [4]: 50%
Cell fluorescence /F/ [5]: +
Cell multiplication coefficient /M/ [5]: 0,25
Percentage of living cells /P %/ [5]: 25%
Cell fluorescence /F/ [6]: ++++
Cell multiplication coefficient /M/ [6]: 0,11
Percentage of living cells /P %/ [6]: 18%
Cell fluorescence /F/ [7]: +++
Cell multiplication coefficient /M/ [7]: 0,15
Percentage of living cells /P %/ [7]: 15%
Cell fluorescence /F/ [8]: +++
Cell multiplication coefficient /M/ [8]: 0,62
Percentage of living cells /P %/ [8]: 62%
Cell fluorescence /F/ [9]: +
Cell multiplication coefficient /M/ [9]: 0,13
Percentage of living cells /P %/ [9]: 13%
Cell fluorescence /F/ [10]: +++
Cell multiplication coefficient /M/ [10]: 0,62
Percentage of living cells /P %/ [10]: 62%
